Consider one compound from patent US10294530B2, “Biomarker FOXF2 for gastric cancer” (The Chinese University of Hong Kong, priority 2016, dated 2019).

This assay deals with FOXF2 expression. Put plainly: Demethylation treatment, FOXF2 expression by semi-quantitative PCR. The class given is cell-based, human. Here is the method:
Semi-quantitative PCR was performed in a total volume of 20 μL reaction containing GeneAmp 1×PCR Buffer II (Applied Biosystems), 2.5 mM MgCl2, 200 μM each of dNTP, 200 nM each of primers, 0.4 U of AmpliTaq Gold DNA polymerase (Applied Biosystems) and 30˜50 ng cDNA. The PCR program started with an initial denaturation at 94° C. for 10 min, followed by 32-35 cycles (94° C. for 30 sec, annealing temperature for 30 sec, and 72° C. for 30 sec) of amplification, with a final extension at 72° C. for 10 min. The PCR bands were visualized under ultraviolet light and photographed. The expression of the target gene was normalized by the expression of house-keeping gene β-actin, which served as an internal control.
Cells were seeded at a density of 1×10^5/100-mm dishes and grew for 24 hours. Cells were then treated with 2 μM 5-aza-2′-deoxycytidine (“5-Aza”) (Sigma-Aldrich) for 5 days. The 5-Aza was replenished every day. The gene expression of FOXF2 was evaluated using semi-quantitative PCR.

Molecules are shown by their SMILES.

As to `Nc1ncn([C@H]2C[C@H](O)[C@@H](CO)O2)c(=O)n1` [5-Aza, 5-aza-2′-deoxycytidine], the FOXF2 expression result (AGS, 2 μM 5-Aza for 5 days) was “restored”; the FOXF2 expression result (MKN28, 2 μM 5-Aza for 5 days) was “restored”; the FOXF2 expression result (MKN45, 2 μM 5-Aza for 5 days) was “restored”; the FOXF2 expression result (MKN74) was “insufficient”; the FOXF2 expression result (NCL-N87, 2 μM 5-Aza for 5 days) is on record as “restored”; the FOXF2 expression entry (SNU719, 2 μM 5-Aza for 5 days) was “restored”.
